{"source": "patent US12083093B2", "about": "“Composition for preventing or treating cellular senescence-related diseases comprising salinomycin as effective component” (RESEARCH COOPERATION FOUNDATION OF YEUNGNAM UNIVERSITY, priority 2018, dated 2024)", "key": {"[1]": {"system": "premature senescent renal tubular cells (HK2) by doxorubicin", "test": "SAβG activity staining, doxorubicin-induced premature senescent HK2 cells", "assay_type": "cell-based, human", "settings": "100 nM, 4 days; compared to DMSO-treated group; FIG. 6A-6C", "method": "(§1) Each cell was treated in a serum-free culture solution containing doxorubicin (0.5 μM) for 4 hours. After washing the cells with a serum-free culture solution, the cells were cultured for 4 days in a culture solution containing 10% FBS, and then cellular aging was confirmed by measuring the level of senescence by staining with senescence-associated beta galactosidase.\n(§2) After each sample was dissolved in DMSO, young cells, replicative senescent cells and senescent cells in which premature aging was induced by treating with doxorubicin were treated with 100 nM salinomycin, 100 nM rapamycin, 100 nM ABT263. After incubation for 4 days in a 37° C., 5% CO2 incubator, the degree of cell survival was confirmed by CCK-8 analysis, the degree of cellular aging was confirmed by senescence-associated β-galactosidase (SAβG) staining, p53 and p16 protein expression analysis.\n(§3) The cells were washed with 1× phosphate buffer solution, and fixed with a phosphate buffer solution containing 3.7% (v/v) paraformaldehyde. After adding 1 mg/ml 5-bromo-4-chloro-3-indolyl-β-D-galactoside, 40 mM citric acid-sodium phosphate (pH 6.0), 5 mM potassium ferricyanide, 5 mM potassium ferrocyanide, 150 mM NaCl, and 2 mM MgCl2 solution, it was reacted at 37° C. for 18 hours. It was stained with eosin as a control stain and cells stained blue in the cytoplasm were identified using an optical microscope. […]"}, "[2]": {"system": "premature senescent renal tubular cells (HK2) by doxorubicin", "test": "CCK-8 cell survival, doxorubicin-induced premature senescent HK2 cells", "assay_type": "cell-based, human", "settings": "100 nM, 4 days; compared to DMSO-treated group; FIG. 6A-6C", "method": "as §1, §2\n(§4) Young cells (1×10^3 cells/well) or senescent cells (2×10^3 cells/well) were dispensed into a 96-well plate, and cultured overnight in a 37° C., 5% CO2 incubator. Salinomycin, ABT263 and rapamycin were treated at each concentration, and then incubated for 4 days in a 37° C., 5% CO2 incubator. […] Then, the absorbance was measured at 450 nm using a Microplate reader.\n(§5) The degree of cell survival was expressed as a relative value for the absorbance of the control group treated with only DMSO as 100%. […]"}, "[3]": {"system": "premature senescent retinal pigmented epithelial cells (ARPE) by doxorubicin", "test": "CCK-8 cell survival, doxorubicin-induced premature senescent retinal pigmented epithelial cells", "assay_type": "cell-based, human", "settings": "100 nM, 4 days; compared to DMSO-treated group; FIG. 5A, 5B", "method": "as §1, §2, §4, §5"}, "[4]": {"system": "premature senescent vascular endothelial cells (HUVEC) by doxorubicin", "test": "SAβG activity staining, doxorubicin-induced premature senescent HUVEC", "assay_type": "cell-based, human", "settings": "100 nM, 4 days; compared to DMSO-treated group; p<0.01; FIG. 3A, 3B", "method": "as §1, §2, §3"}, "[5]": {"system": "replicative senescent vascular endothelial cells (HUVEC)", "test": "CCK-8 cell survival, replicative senescent HUVEC", "assay_type": "cell-based, human", "settings": "according to concentration of salinomycin; FIG. 4C", "method": "(§6) After dispensing 2×10^5 cells in a 100 mm culture dish, they were cultured in a 37° C., 5% CO2 incubator. When the cells grew to 80-90% in the culture dish, the cells were removed by treatment with trypsin-EDTA, and the number of cells was measured, and the cell population doubling time (PDT) was measured.\n(§7) By successively subculturing the cells in the same process as described above, replication aging was induced. PDT of young fibroblasts was 36 hours, PDT of replicative senescent fibroblasts was 12 days, PDT of young vascular endothelial cells was 24 hours, and PDT of replicative senescent vascular endothelial cells was 7 days.\n(§8) After each sample was dissolved in DMSO, young cells, replicative senescent cells and senescent cells in which premature aging was induced by treating with doxorubicin were treated with 100 nM salinomycin, 100 nM rapamycin, 100 nM ABT263. […]\n(§9) Young cells (1×10^3 cells/well) or senescent cells (2×10^3 cells/well) were dispensed into a 96-well plate, and cultured overnight in a 37° C., 5% CO2 incubator. […] Then, the absorbance was measured at 450 nm using a Microplate reader.\n(§10) The degree of cell survival was expressed as a relative value for the absorbance of the control group treated with only DMSO as 100%."}, "[6]": {"system": "young fibroblasts (HDF)", "test": "CCK-8 cell survival, young human fibroblasts", "assay_type": "cell-based", "settings": "young cells, increasing concentration of salinomycin; FIG. 2A, 2D", "method": "as §2\nYoung cells (1×10^3 cells/well) or senescent cells (2×10^3 cells/well) were dispensed into a 96-well plate, and cultured overnight in a 37° C., 5% CO2 incubator. Salinomycin, ABT263 and rapamycin were treated at each concentration, and then incubated for 4 days in a 37° C., 5% CO2 incubator. 10 μl of CCK-8 reagent (Dojindo Molecular Technologies Inc., Kumamoto, Japan) was added to each well, and incubated for 2 hours in an incubator. Then, the absorbance was measured at 450 nm using a Microplate reader.\nas §10"}, "[7]": {"system": "replicative senescent human fibroblasts (HDF)", "test": "CCK-8 cell survival, replicative senescent human fibroblasts", "assay_type": "cell-based", "settings": "replicative senescent cells, increasing concentration of salinomycin; FIG. 2A, 2D", "method": "as §6, §7, §8, §9, §10"}, "[8]": {"system": "premature senescent retinal pigmented epithelial cells (ARPE) by doxorubicin", "assay_type": "cell-based, human", "method": "as §1\nCytotoxicity against young and senescent cells was investigated with a lactate dehydrogenase (LDH) activity kit (Dojindo Molecular Technologies Inc.). Young cells (1×10^3 cells/100 μl/well) or senescent cells (2×10^3 cells/100 μl/well) were dispensed into a 96-well plate, and then cultured overnight in a 37° C., 5% CO2 incubator.\nSalinomycin, ABT263 and rapamycin were treated at each concentration, and then incubated for 4 days in a 37° C., 5% CO2 incubator. After transferring the cell culture solution to a 1.5 ml tube, it was centrifuged at 4° C. and 12,000 rpm. 100 μl of the supernatant was dispensed into a 96-well plate, and 100 μl of the LDH measurement solution was added to each well, followed by reaction in a CO2 incubator for 30 minutes. 50 μl of the LDH reaction stop solution was added, and absorbance was measured at 490 nm using a microplate reader. The level of LDH activity was expressed as a relative value based on the absorbance of the control group treated with only DMSO."}}}
{"compound": "CC[C@@H](C(=O)[C@@H](C)[C@@H](O)[C@H](C)[C@@H]1O[C@@H]([C@@H](CC)C(=O)O)CC[C@@H]1C)[C@H]1O[C@]2(C=C[C@@H](O)[C@]3(CC[C@@](C)([C@H]4CC[C@](O)(CC)[C@H](C)O4)O3)O2)[C@H](C)C[C@@H]1C", "note": "[salinomycin]", "values": [{"measurement": "SaβG activity", "setting": "[1]", "value": "no change"}, {"measurement": "survival (CCK-8)", "setting": "[2]", "value": "no change"}, {"measurement": "cell survival (CCK-8)", "setting": "[3]", "value": "significantly (p<0.01) reduced"}, {"measurement": "SAβG activity staining", "setting": "[4]", "value": "significantly decreased"}, {"measurement": "cell survival (CCK-8)", "setting": "[5]", "value": "did not affect"}, {"measurement": "cell survival (CCK-8)", "setting": "[6]", "value": "no change"}, {"measurement": "cell survival (CCK-8)", "setting": "[7]", "value": "no change"}, {"measurement": "cytotoxicity by LDH activity", "setting": "[8]", "value": "significantly increased"}]}
